From patent US6414222B1, “Gene combinations for herbicide tolerance in corn” (Regents of the University of Minnesota, priority 1993, dated 2002)

Legend:
[1] = system: fatty acid synthetase; assay: [14C]malonyl-CoA incorporation into fatty acids, cell-free extracts from corn suspension cultures; format: biochemical, Black Mexican Sweet (BMS) corn
Method: Incorporation of [^14C]malonyl-Coenzyme A into fatty acids (P. B. Hoj et al., supra; and J. B. Ohlrogge et al., Proc. Natl. Acad. Sci. USA, 76, 1194-1198 (1979)) was assayed using cell-free preparations from BMS tissue culture. Cells harvested during logarithmic growth phase were frozen in liquid nitrogen, ground with a mortar and pestle, and thawed in a medium containing: 0.1 M HEPES-KOH, pH 7.5; 0.3 M glycerol, and 5 mM DTT (buffer:tissue, 2:1, v/w). The homogenate was centrifuged at 12,000 g for 20 minutes. The supernatant was filtered through miracloth and centrifuged (125,000 g) for 60 minutes and then filtered through miracloth and assayed. Assays were conducted at 25° C. in a 0.4 ml volume containing: 1.0 mM ATP, 0.32 mM NADPH, 0.38 mM NADH, 25 μM CoA, 10 μM acetyl-CoA, 25 μg acyl-carrier protein, and 12 μM malonyl-CoA (11.54 μCi/μmol). Reactions were initiated by addition of [^14C]malonyl CoA and stopped by addition of 0.4 ml 40% KOH. Label incorporation into fatty acids was determined as above. Chlorophyll (D. I. Arnon, Plant Physiol., 24, 1-15 (1949)) and protein (P. K. Smith et al., Anal. Biochem., 150, 76-85 (1985)) were determined as described therein.

[2] = system: cell line 2167-9/2160-154 H-2; assay: Callus herbicide tolerance, line H-2; format: cell-based, maize; conditions: cell line H-2
Method: Tolerant cell line 2167-9/2160-154 S-2 (“S-2”) was characterized to evaluate: (1) the magnitude of sethoxydim tolerance; (2) cross-tolerance of haloxyfop; and (3) the biochemical basis for the tolerance. Callus tissue from S-2 that had been maintained on 10 μM sethoxydim was transferred to media containing up to 100 μM sethoxydim. One-half gram of S-2 tissue was plated on a 7 cm filter paper as a lawn overlaying 50 ml agar-solidified culture medium containing 0, 0.5, 1.0, 2.0, 5.0, 10.0, 50.0 and 100 μM sethoxydim, and cultured for two weeks. Control cell line 2167-9/2160-154 was plated similarly on medium containing the same levels of sethoxydim. The control cell line growth after two weeks was inhibited 50% at 1 μM sethoxydim.
The tolerant callus cultures were characterized to determine the magnitude of sethoxydim and haloxyfop tolerance. Callus tissue from these lines was evaluated in experiments as described above in the characterization of line 2167-9/2160-154 S-2.

[3] = system: ACCase of cell line 2167-9/2160-154 H-1; assay: Herbicide inhibition of ACCase, line H-1; format: biochemical, maize; conditions: cell line H-1
Method: Maize chloroplasts, isolated as described above, were suspended in buffer C (0.1 M Tricine-KOH, pH 8.0; 0.3 M glycerol, and 1 mM DTT) and homogenized in a glass tissue homogenizer. The disrupted chloroplast fraction was centrifuged at 16,000 g for 15 minutes. The supernatant was desalted on a Sephadex G-25 column (1.5×5 cm equilibrated with 0.1 M Tricine-KOH, pH 8.0; and 0.3 M glycerol) and assayed directly. ACCase activity (B. J. Nikolau et al., Arch. Biochem. Biophys., 211, 605-612 (1981)) was assayed at 30° C. in a 0.2 ml volume which contained 1 mM ATP, 3 mM acetyl coenzyme A, 2.5 mM MgCl2, 50 mM KCl, 0.5 mM DTT, and 15 mM [^14C]NaHCO3 (0.17 mCi/mmol). Reactions were initiated by addition of acetyl coenzyme A and stopped by addition of 25 μl of 12 N HCl. Product formation was determined by the radioactivity found in an acid stable fraction by liquid scintillation spectrometry. Enzyme activity was linear for 15 minutes.
Acetyl Coenzyme A Carboxylase (ACCase) was extracted from cell lines S-1, H-1 and H-2 and assayed as described in detail for maize cell line S-2, above.

[4] = system: inbred wildtype control plants; assay: Allelism testcross experiments, susceptible controls; format: in vivo, maize (Zea mays L.)
Method: Foliar applications of the herbicides were made to greenhouse- or field-grown seedlings at the three- to five-leaf stage. Herbicides were applied in a spray volume of 187 l/ha that includes 2.3 l/ha crop oil concentrate to enhance uptake. Sethoxydim and haloxyfop were applied using commercial formulations (Poast from BASF Corp and Verdict from Dow Elanco, respectively). Visual observations were recorded 14-21 days after herbicide treatments.
All F1 combinations (no reciprocals) between S1, S2, S3, H1 and H2 homozygotes were made, and these F1s were test crossed to susceptible inbred lines. The testcross progeny were grown in the greenhouse and treated with the herbicides. In Experiment 1, progeny from testcrosses with each of the ten F1 combinations were treated with 0.05 kg/ha sethoxydim for combinations involving only S lines or with 0.009 kg/ha haloxyfop for combinations involving either of the H lines. In Experiment 2, a selected subset of the F1 combinations was tested that used testcross families that were separately derived from those used in Experiment 1. Testcross progeny of S lines were treated with 0.03 kg/ha sethoxydim, and H1 and H2 progeny were treated with 0.009 kg/ha haloxyfop. In each experiment, known susceptible and heterozygous plants were included as controls.

CC(Oc1ccc(Oc2ncc(C(F)(F)F)cc2Cl)cc1)C(=O)O (centres unmarked) [Haloxyfop, 2-[4-[[3-chloro-5-(trifluoromethyl)-2-pyridinyl]oxy]phenoxy]-propanoic acid]
Effect on [14C]malonyl-CoA incorporation into fatty acids (fatty acid synthetase activity) ([1]; haloxyfop 1 μM): did not inhibit | Fold increase in herbicide concentration that results in a 50% reduction in growth vs unselected control cell line [2]: 4 fold | Fold increase in herbicide concentration that results in a 50% reduction in growth vs unselected control cell line ([2]; listed as haloxyfop): four-fold increase | Fold increase in herbicide concentration that inhibits ACCase activity by 50% vs unselected parent cell line [3]: 7 fold | Fold increase in herbicide concentration that inhibits ACCase activity by 50% vs unselected parent cell line ([3]; listed as haloxyfop): more tolerant | Response of wildtype control plants ([4]; 0.009 kg/ha haloxyfop): killed most, but not all

CCCC(=NOCC)C1=C(O)CC(CC(C)SCC)CC1=O (centres unmarked) [Sethoxydim, 2-[1-(ethoxyimino)-butyl]-5-[2-(ethylthio)propyl]-3-hydroxy-2-cyclohexen-1-one]
Effect on [14C]malonyl-CoA incorporation into fatty acids (fatty acid synthetase activity) ([1]; sethoxydim 10 μM): did not inhibit | Fold increase in herbicide concentration that results in a 50% reduction in growth vs unselected control cell line [2]: 0 fold | Fold increase in herbicide concentration that results in a 50% reduction in growth vs unselected control cell line ([2]; listed as sethoxydim): Neither haloxyfop selected line showed a significant degree of sethoxydim tolerance | Fold increase in herbicide concentration that inhibits ACCase activity by 50% vs unselected parent cell line [3]: 0 fold | Response of inbred wildtype control plants ([4]; 0.05 kg/ha (Experiment 1) or 0.03 kg/ha (Experiment 2) sethoxydim): all inbred wildtype plants died
